Patent US8008354B2, “Death receptor sensitizing compounds and methods of use therefor” (Burnham Institute for Medical Research, priority 2006, dated 2011)
Structures can show the parent of a compound that is named as a salt.

What was measured:
PPC-1 cells [1] = test: Apoptosis of PPC-1 cells transfected with CrmA or Bcl-XL, treated with CH-11 and compound; type: cell-based, human; conditions: for protection by Bcl-XL against apoptosis: PPC-1 cells transfected with Bcl-XL; for protection by CrmA against apoptosis induced by CH-11 plus compound: PPC-1 cells transfected with CrmA
Experimental: FIG. 6. Characterization of the mechanism of FAS-sensitizing compounds. (A) PPC-1 cells (1×10^5) were seeded in 24 well plates. The next day, cells were treated with CH-11 antibody (100 ng/mL) and 30 μM 6094911, 5809354, or 5569100 with (square) or without (diamond) caspase inhibitor z-VAD-fmk (100 μM). Apoptosis was measured 24 hours later by Annexin V staining, expressing data as percentage of Annexin V-negative (“viable”) cells (mean+SD) (n=3). (B) PPC-1 cells (2×10^5) were seeded in 6 well plates and co-transfected with plasmids encoding Bcl-XL, Crm A, or empty vector along with a green fluorescent protein (GFP) encoding plasmid to identify successfully transfected cells. After 48 hours, cells were treated with CH-11 antibody (100 ng/mL) and 6094911 (30 μM), 5809354 (30 μM), or 5569100 (15 μM). As a positive control, transfected cells were treated with staurosporine (0.5 μM) (STS). Apoptotic cells were identified by morphological assessment of the GFP-positive cells, and data were expressed as the percentage of nonapoptotic (“viable”) cells (mean+SD) (n=3).
Cell transfections. PPC-1 cells (2×10^5) were seeded in 35 mm diameter plates in RPMI with 10% FCS. The next day the cells were co-transfected using Lipofectamine Plus (Invitrogen, Carlsbad, Calif.) with 0.5 μg GFP-encoding plasmid pEGFP (Invitrogen) in combination with 1.5 μg of plasmids encoding Bcl-XL, the viral caspase-8 inhibitor Crm A, or empty vector. At 2 days post-transfection, cells were incubated with various concentrations of CH-11 antibody and the test compounds for 24 hours, then the percentage apoptosis was scored by UV-microscopic analysis of the GFP-positive cells, counting a minimum of 200 cells. Cells that had rounded up and were floating in the medium were counted as non-viable, while cells that remained adherent to the plate with normal morphological features were counted as viable.
To further address the specificity of the compounds for the extrinsic pathway, the effects of selective apoptosis inhibitory genes were examined. For these experiments, PPC-1 cells were transfected with plasmids encoding CrmA, a viral protein that blocks the extrinsic pathway by inhibiting caspase-8 (Zhou et al., 1997) or encoding Bcl-xL, a mitochondria-targeting protein that blocks the intrinsic pathway by inhibiting release of cytochrome c (Boise et al., 1993; Kharbanda et al., 1997). After transfection, cells were treated with CH-11 antibody and compounds 6094911, 5809354, or […] scoring the percentage of apoptotic cells among the successfully transfected cells as determined by co-transfection of a GFP-marker plasmid.

PPC-1 cells [2] = test: MTT cell viability of PPC-1 cells treated with compound with or without CH-11 anti-FAS antibody; type: cell-based; conditions: for LD50 (μM) (PPCl, CH-11): PPC-1 cells with CH-11 100 ng/mL, MTT 24 hours, LD50 = concentration that reduces cell viability by 50%; for IC50: Homo sapiens, PPC-1, 24 h, compound alone without CH-11, MTT 24 hours, read-out: LD50 (μM) PPCl
Experimental: FIGS. 2A-C. […] PPC-1 cells (1×10^4) were seeded in 96 well plates. The next day, cells were treated with increasing concentrations of the sensitizing compounds with (open squares) and without (closed squares) CH-11 antibody (100 ng/mL). Cell viability was measured 24 hours later by MTT assay. Cell viability is expressed as a mean percentage of untreated cells+SD (n=3). The Chembridge identification numbers of the compounds are provided.
High throughput screening. […] PPC-1 cells (1×10^4) were seeded overnight into 96 well, flat-bottom plates (Costar, Cambridge, Mass.) in 100 μL of medium containing 2.5% FCS. […] CH-11 antibody (100 ng/mL) was then added, and the cells were incubated for 24 hours before assessing cell viability by a 3-(4,5-Dimethylthiazol-2-yl)-2,5-diphenyltetrazolium Bromide (MTT) dye reduction assay (Sigma).
Cell death assays. […] Absorbance readings were plotted against a standard curve to derive the corresponding cell number, and cell viability was expressed as a percentage relative to untreated cells.

FAS or TRAIL receptors = test: Surface expression of FAS or TRAIL receptors by flow cytometry; type: cell-based, human; conditions: PPC-1 cells, flow cytometry (data not shown)
Description: Furthermore, since these compounds sensitize to both FAS and TRAIL, they presumably act distal to death receptors.

solid tumor cell lines = test: MTT cell viability of a spectrum of tumor cell lines with or without CH-11; type: cell-based; conditions: 10 tumor cell lines, CH-11 100 ng/mL, MTT 24 hours
Experimental: FIG. 3. Compounds 6094911, 5809354, and 5569100 sensitize a spectrum of tumor cells to CH-11 anti-FAS antibody. Solid tumor cell lines were seeded overnight in 96 well plates at a density of 1×10^4 cells per well. The next day, cells were treated with increasing concentrations of compound 6094911, 5809354, or 5569100 with (square) or without (circle) CH-11 antibody (100 ng/mL). Cell viability was measured 24 hours later by MTT assay. Cell viability is expressed as a mean percentage of untreated cells+SD (n=3).
Cell death assays. Cell viability was measured by MTT and MTS assays, essentially as described in Schimmer et al. (2004). Absorbance readings were plotted against a standard curve to derive the corresponding cell number, and cell viability was expressed as a percentage relative to untreated cells. Apoptosis was measured by flow cytometric analysis of Annexin V surface expression after staining cells with FITC-anti-Annexin V and propidium iodide (PI) (Biovision, Mountain View, Calif.), as described in Pederson et al. (2002).
To assess the spectrum of activity of the small molecule FAS sensitizers, an additional 9 malignant cell lines derived from breast, ovarian, and prostate carcinomas were treated with increasing concentrations of the sensitizers in the presence or absence of CH-11. […]

## 4-(4-chloro-2-methylphenoxy)-N-hydroxybutanamide [compound 5809354]
PPC-1 cells [1]
  protection by Bcl-XL against apoptosis: no protective effect
  protection by CrmA against apoptosis induced by CH-11 plus compound: almost completely protected
PPC-1 cells [2]
  LD50 (μM) (PPCl, CH-11): 20+2 μM
FAS or TRAIL receptors
  surface expression of FAS or TRAIL receptors: did not change
Solid tumor cell lines
  tumor cell lines sensitized to CH-11: sensitized the same tumor lines with the exception of HT29

## CCn1c(=N)n(CC(=O)c2cc(C(C)(C)C)c(O)c(C(C)(C)C)c2)c2ccccc21 [compound 5569100, 1-(3,5-di-tert-butyl-4-hydroxyphenyl)-2-(3-ethyl-2-imino-2,3-dihydro-1H-benzo[d]imidazol-1-yl)ethanone hydrobromide]
PPC-1 cells [1]
  protection by Bcl-XL against apoptosis: no protective effect
  protection by CrmA against apoptosis induced by CH-11 plus compound: almost completely protected
PPC-1 cells [2]; PPC-1 cells
  IC50: 15 µM
PPC-1 cells [2]; PPC1 cells, without anti-FAS antibody
  toxicity when added alone relative to 5541203: 3 times
PPC-1 cells [2]
  LD50 (μM) (PPCl, CH-11): 5.6 µM
PPC-1 cells [2]; combined with CH-11, median-dose combination index (Chou, 1991), synergy
  combination Index (CI): did not demonstrate synergy
FAS or TRAIL receptors
  surface expression of FAS or TRAIL receptors: did not change

## CC(=O)CC(=O)Nc1ccc(Cl)c(C(F)(F)F)c1 [compound 6094911, N-[4-chloro-3-(trifluoromethyl)phenyl]-3-oxobutanamide]
PPC-1 cells [1]
  protection by Bcl-XL against apoptosis: no protective effect
  protection by CrmA against apoptosis induced by CH-11 plus compound: almost completely protected
PPC-1 cells [2]; PPC-1 cells
  IC50: > 100 µM
PPC-1 cells [2]
  LD50 (μM) (PPCl, CH-11): 35+4 μM
PPC-1 cells [2]; listed as N-[4-chloro-3-(trifluoromethyl)phenyl]-3-oxobutanamide
  LD50 (μM) (PPCl, CH-11): 35 ± 4 µM
PPC-1 cells [2]; PPC-1 cells, compound alone, concentrations up to 80 μM
  direct toxicity: little direct toxicity
FAS or TRAIL receptors
  surface expression of FAS or TRAIL receptors: did not change
Solid tumor cell lines
  tumor cell lines sensitized to CH-11: 4 of 10

## CN[C@@H]1C[C@H]2O[C@@](C)([C@@H]1OC)n1c3ccccc3c3c4c(c5c6ccccc6n2c5c31)C(=O)NC4 [staurosporine, reference compound]
PPC-1 cells [1]
  protection by Bcl-XL against apoptosis: Bcl-XL but not Crm A protected
